From paper PMC11826341 (PNAS Nexus, 2025)
“Also recorded” adds a separate entry of the source.

Key:
[1] = system: cultured hippocampal neurons
[2] = system: sEPSCNMDAR, synaptic NMDARs of cultured hippocampal neurons; type: cell-based, rat
[3] = system: cultured hippocampal neurons; conditions: 48 h

CN[C@@H]1C[C@H]2O[C@@](C)([C@@H]1OC)n1c3ccccc3c3c4c(c5c6ccccc6n2c5c31)C(=O)NC4 [STRO, staurosporine]
Apoptotic neurons [1]: 30.85%
Dead (apoptotic) neurons [1]: 76.99%

CC(C(O)c1ccc(O)cc1)N1CCC(Cc2ccccc2)CC1 (centres unmarked) [ifenprodil]
sEPSCNMDAR amplitude [2]: strongly reduced amplitudes; also recorded: significantly less so in mature neurons

N[C@H](CCCP(=O)(O)O)C(=O)O [AP5, (2R)-amino-5-phosphonovaleric acid]
Neuroprotection against STRO [1]: did not exert neuroprotection

CN[C@H](CC(=O)O)C(=O)O [NMDA, N-methyl-D-aspartate]
Neurons killed [3]: ~80%
